Results on three compounds are retold here after publication PMC1972543, “Elevated carbohydrate phosphotransferase activity in human hepatoma and phosphorylation of cathepsin D” (British Journal of Cancer, 1991).

Test [1] addresses T1, GlcNAc-phosphotransferase (UDP-GlcNAc: lysosomal enzyme GlcNAc alpha 1-phosphotransferase) (Homo sapiens, UniProt Q3T906).
T1 construct: gene GNPTAB; native enzyme in 600 g supernatant of human normal liver homogenate (autopsy tissue), not purified; alpha/beta precursor is cleaved into alpha and beta chains (alpha2beta2gamma2); with N-acetylglucosamine-1-phosphotransferase subunit gamma
Put plainly: radiometric transferase assay, QAE-Sephadex. It counts as biochemical. The settings on record: normal liver homogenate, range of three preparations, Mn2+, Mg2+, ATP, pH 7.4, 37 °C.

For test [2], the target named is T2, phosphodiester glycosidase (phosphodiester alpha-N-acetylglucosaminidase) (Homo sapiens, UniProt Q9UK23).
T2 construct: gene NAGPA; native enzyme in 600 g supernatant of human normal liver and hepatoma homogenates, not purified
T2 sequence (Q9UK23 50-515): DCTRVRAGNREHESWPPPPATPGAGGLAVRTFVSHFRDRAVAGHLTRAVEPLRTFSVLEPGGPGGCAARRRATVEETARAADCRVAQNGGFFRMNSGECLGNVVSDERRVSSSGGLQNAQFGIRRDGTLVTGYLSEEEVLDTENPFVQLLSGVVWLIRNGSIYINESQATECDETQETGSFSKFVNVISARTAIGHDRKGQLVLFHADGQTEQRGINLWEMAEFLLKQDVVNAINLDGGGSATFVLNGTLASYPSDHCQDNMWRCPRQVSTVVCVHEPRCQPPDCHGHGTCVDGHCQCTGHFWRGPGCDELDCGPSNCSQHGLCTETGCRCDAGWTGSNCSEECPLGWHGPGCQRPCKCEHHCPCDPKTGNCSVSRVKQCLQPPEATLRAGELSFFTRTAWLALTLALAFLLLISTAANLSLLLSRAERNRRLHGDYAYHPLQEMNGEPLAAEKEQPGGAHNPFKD
Put plainly: radiometric release of [3H]GlcNAc, QAE-Sephadex. The test is classed as biochemical. The following applies: liver homogenate; Triton X-100, N-acetylmannosamine, EDTA, pH 7.4, 37 °C; labelled compound.

For orientation: Km means the substrate concentration at which the rate is half of its maximum.

T1 sequence (Q3T906 1-928): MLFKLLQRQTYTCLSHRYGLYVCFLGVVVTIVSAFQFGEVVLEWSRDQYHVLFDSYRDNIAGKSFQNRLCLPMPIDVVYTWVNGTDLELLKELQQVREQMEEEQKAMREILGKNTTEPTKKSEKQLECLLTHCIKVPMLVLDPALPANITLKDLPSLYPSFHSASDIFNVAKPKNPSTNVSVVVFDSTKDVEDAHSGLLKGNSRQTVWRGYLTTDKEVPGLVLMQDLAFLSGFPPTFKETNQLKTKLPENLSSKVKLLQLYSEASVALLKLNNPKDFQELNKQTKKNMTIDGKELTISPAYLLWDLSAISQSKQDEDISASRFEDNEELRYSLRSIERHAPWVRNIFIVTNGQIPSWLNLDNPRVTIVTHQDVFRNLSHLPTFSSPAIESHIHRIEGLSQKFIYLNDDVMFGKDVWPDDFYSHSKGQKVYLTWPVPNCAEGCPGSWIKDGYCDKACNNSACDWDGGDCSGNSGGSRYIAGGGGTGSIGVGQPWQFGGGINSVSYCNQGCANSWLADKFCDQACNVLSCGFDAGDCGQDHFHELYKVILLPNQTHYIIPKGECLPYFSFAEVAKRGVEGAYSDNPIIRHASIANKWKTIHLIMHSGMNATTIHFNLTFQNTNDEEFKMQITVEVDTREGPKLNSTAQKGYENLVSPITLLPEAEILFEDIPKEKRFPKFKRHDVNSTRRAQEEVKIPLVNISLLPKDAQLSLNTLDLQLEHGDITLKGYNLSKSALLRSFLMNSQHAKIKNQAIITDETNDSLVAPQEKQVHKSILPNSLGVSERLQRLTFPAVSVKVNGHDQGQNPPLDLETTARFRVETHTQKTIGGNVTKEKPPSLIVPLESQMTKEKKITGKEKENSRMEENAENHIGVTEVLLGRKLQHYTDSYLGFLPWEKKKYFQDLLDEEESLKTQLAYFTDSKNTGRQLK
T1 sequence (Q3T906 929-1256): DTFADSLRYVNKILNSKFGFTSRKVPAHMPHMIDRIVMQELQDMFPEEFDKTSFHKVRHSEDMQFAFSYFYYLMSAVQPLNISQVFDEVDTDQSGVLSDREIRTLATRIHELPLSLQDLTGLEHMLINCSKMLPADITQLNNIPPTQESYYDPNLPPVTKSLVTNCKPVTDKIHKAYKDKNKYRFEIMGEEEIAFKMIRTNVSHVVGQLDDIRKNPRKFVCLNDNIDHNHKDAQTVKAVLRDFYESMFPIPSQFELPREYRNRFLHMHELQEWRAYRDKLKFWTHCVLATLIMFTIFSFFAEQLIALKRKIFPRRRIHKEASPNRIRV
T1 sequence (Q9UJJ9 25-305 partner): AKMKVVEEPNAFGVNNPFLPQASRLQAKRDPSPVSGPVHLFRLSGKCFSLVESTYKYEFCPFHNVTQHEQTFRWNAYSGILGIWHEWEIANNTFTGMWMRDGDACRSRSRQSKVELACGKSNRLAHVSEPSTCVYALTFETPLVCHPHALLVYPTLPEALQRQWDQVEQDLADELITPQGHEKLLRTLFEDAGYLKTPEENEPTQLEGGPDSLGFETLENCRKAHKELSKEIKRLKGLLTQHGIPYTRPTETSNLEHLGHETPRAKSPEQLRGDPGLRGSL

For the compound `CC(=O)N[C@H]1[C@@H](OP(=O)(O)OP(=O)(O)OC[C@H]2O[C@@H](n3ccc(=O)[nH]c3=O)[C@H](O)[C@@H]2O)O[C@H](CO)[C@@H](O)[C@@H]1O` [UDP-GlcNAc], the Km in test [1] (acceptor alpha-methylmannoside, labelled compound) fell in the range of 0.027 to 0.037 mM.

Consider `CO[C@H]1O[C@H](COP(=O)(O)O[C@H]2O[C@H](CO)[C@@H](O)[C@H](O)[C@H]2NC(C)=O)[C@@H](O)[C@H](O)[C@@H]1O` [[6-3H]GlcNAc-P-6-(alpha-methyl)mannoside], for which the “radiometric release of [3H]GlcNAc, QAE-Sephadex” value in test [2] is recorded as “amount of the labelled substrate used for the glycosidase assay was not sufficient to measure Km”.

Turning to `CO[C@H]1O[C@H](CO)[C@@H](O)[C@H](O)[C@@H]1O` [alpha-methylmannoside], in test [1] (co-substrate [beta-32P]UDP-GlcNAc), the Km was 50 to 100 mM.
